# Laboratory results as given in paper PMC12669040, “Tumour-specific STING agonist synthesis via a two-component prodrug system” (Nature Chemistry, 2025).
# Several values for one entry are separate records, joined by “and”; a condition that tells them apart may be missing. Equal entries are not always repeated.
# Columns and labels:
# [1] = Colorimetric alkylation rate constant assay with TNB^2− as non-specific thiol; type: physicochemical; set-up: second-order: unit not given here; conditions: for remaining [B]: in µM
# [2] = Colorimetric alkylation rate constant assay with thiol N1; type: physicochemical; conditions: for remaining [A]: N1 from calibration curve (N1 in uM); for remaining [A] / remaining [B]: in µM
# [3] = Time 2891 sec, [B]0 = 250, Replicates 1-3
# [4] = Time 3071 sec, [B]0 = 250, Replicates 1-3
# [5] = Time 3252 sec, [B]0 = 250, Replicates 1-3
# [6] = Time 3433 sec, [B]0 = 250, Replicates 1-3
# [7] = Time 3613 sec, [B]0 = 250, Replicates 1-3
compound,measurement,setting,value
O=C(CCl)Nc1ccccc1 [Compound C2],remaining [B],"[1]; Replicate 1, 723 sec, [B]0 = 250",243.908
same,remaining [B],"[1]; Replicate 1, 903 sec, [B]0 = 250",243.568
same,remaining [B],"[1]; Replicate 1, 1084 sec, [B]0 = 250",243.228
same,remaining [B],"[1]; Replicate 1, 1265 sec, [B]0 = 250",242.9
same,remaining [B],"[1]; Replicate 1, 1445 sec, [B]0 = 250",242.598
same,remaining [B],"[1]; Replicate 1, 1626 sec, [B]0 = 250",242.232
same,remaining [B],"[1]; Replicate 1, 1806 sec, [B]0 = 250",241.905
same,remaining [B],"[1]; Replicate 1, 1988 sec, [B]0 = 250",241.539
same,remaining [B],"[1]; Replicate 1, 2168 sec, [B]0 = 250",241.224
same,remaining [B],"[1]; Replicate 1, 2349 sec, [B]0 = 250",240.884
same,remaining [B],"[1]; Replicate 1, 2530 sec, [B]0 = 250",240.607
same,remaining [B],"[1]; Replicate 1, 2710 sec, [B]0 = 250",240.229
same,remaining [B],"[1]; Replicate 2, 542 sec, [B]0=250",245.363
same,remaining [B],"[1]; Replicate 2, 723 sec, [B]0=250",245.048
same,remaining [B],"[1]; Replicate 2, 903 sec, [B]0=250",244.733
same,remaining [B],"[1]; Replicate 2, 1084 sec, [B]0=250",244.393
same,remaining [B],"[1]; Replicate 2, 1265 sec, [B]0=250",244.09
same,remaining [B],"[1]; Replicate 2, 1445 sec, [B]0=250",243.737
same,remaining [B],"[1]; Replicate 2, 1626 sec, [B]0=250",243.435
same,remaining [B],"[1]; Replicate 2, 1806 sec, [B]0=250",243.107
same,remaining [B],"[1]; Replicate 2, 1988 sec, [B]0=250",242.78
same,remaining [B],"[1]; Replicate 2, 2168 sec, [B]0=250",242.452
same,remaining [B],"[1]; Replicate 2, 2349 sec, [B]0=250",242.137
same,remaining [B],"[1]; Replicate 2, 2530 sec, [B]0=250",241.772
same,remaining [B],"[1]; Replicate 2, 2710 sec, [B]0=250",241.469
same,remaining [B],"[1]; Replicate 3, 723 sec, [B]0=250",245.156
same,remaining [B],"[1]; Replicate 3, 903 sec, [B]0=250",244.866
same,remaining [B],"[1]; Replicate 3, 1084 sec, [B]0=250",244.475
same,remaining [B],"[1]; Replicate 3, 1265 sec, [B]0=250",244.311
same,remaining [B],"[1]; Replicate 3, 1445 sec, [B]0=250",243.732
same,remaining [B],"[1]; Replicate 3, 1626 sec, [B]0=250",243.593
same,remaining [B],"[1]; Replicate 3, 1806 sec, [B]0=250",243.165
same,remaining [B],"[1]; Replicate 3, 1988 sec, [B]0=250",242.824
same,remaining [B],"[1]; Replicate 3, 2168 sec, [B]0=250",242.61
same,remaining [B],"[1]; Replicate 3, 2349 sec, [B]0=250",242.232
same,remaining [B],"[1]; Replicate 3, 2530 sec, [B]0=250",241.917
same,remaining [B],"[1]; Replicate 3, 2710 sec, [B]0=250",241.653
same,second-order,[1]; [3],0.0003773 and 0.0003667 and 0.0004313
same,remaining [B],[1]; [3],241.388 and 239.977 and 241.154
same,second-order,[1]; [4],0.0003928 and 0.0003885 and 0.000446
same,remaining [B],[1]; [4],240.909 and 239.662 and 240.814
same,second-order,[1]; [5],0.0004061 and 0.0003977 and 0.0004618
same,remaining [B],[1]; [5],240.708 and 239.321 and 240.524
same,second-order,[1]; [6],0.0004218 and 0.000411 and 0.0004772
same,remaining [B],[1]; [6],240.418 and 238.994 and 240.184
same,second-order,[1]; [7],0.0004369 and 0.0004267 and 0.0004915
same,remaining [B],[1]; [7],240.077
same,second-order,"[1]; Time 3794 sec, [B]0 = 250, Replicates 1-3",0.0004533 and 0.0004448 and 0.000507
same,second-order,"[1]; Time 3974 sec, [B]0 = 250, Replicates 1-3",0.0004675 and 0.0004536 and 0.0005214
same,second-order,"[1]; Time 4155 sec, [B]0 = 250, Replicates 1-3",0.0004823 and 0.0004725 and 0.0005334
same,second-order,"[1]; Time 4336 sec, [B]0 = 250, Replicates 1-3",0.0004965 and 0.0004915 and 0.0005528
same,second-order,"[1]; Time 4516 sec, [B]0 = 250, Replicates 1-3",0.0005127 and 0.0005034 and 0.0005668
same,second-order,"[1]; Time 4697 sec, [B]0 = 250, Replicates 1-3",0.0005253 and 0.000516 and 0.0005808
same,second-order,"[1]; Time 4878 sec, [B]0 = 250, Replicates 1-3",0.000541 and 0.0005322 and 0.0005962
same,second-order,"[1]; Time 5058 sec, [B]0 = 250, Replicates 1-3",0.0005592 and 0.0005485 and 0.0006085
same,second-order,"[1]; Time 5239 sec, [B]0 = 250, Replicates 1-3",0.0005708 and 0.0005619 and 0.0006247
same,second-order,"[1]; Time 5419 sec, [B]0 = 250, Replicates 1-3",0.0005891 and 0.0005723 and 0.0006371
same,second-order,"[1]; Time 5600 sec, [B]0 = 250, Replicates 1-3",0.0006027 and 0.0005925 and 0.000654
same,second-order,"[1]; Time 5781 sec, [B]0 = 250, Replicates 1-3",0.0006182 and 0.000611 and 0.0006672
same,second-order,"[1]; Time 5961 sec, [B]0 = 250, Replicates 1-3",0.0006343 and 0.000624 and 0.0006855
same,remaining [A],"[2]; Replicate 1, time 576 sec",80.4651
same,remaining [B],"[2]; Replicate 1, time 576 sec, [B]0 = 250",226.345
same,second-order,"[2]; Replicate 1, time 576 sec, second-order plot value",0.001085
same,remaining [A],"[2]; Replicate 1, time 606 sec",79.6386
same,remaining [B],"[2]; Replicate 1, time 606 sec, [B]0 = 250",225.519
same,second-order,"[2]; Replicate 1, time 606 sec, second-order plot value",0.001131
same,remaining [A],"[2]; Replicate 2, time 576 sec",80.4092
same,remaining [B],"[2]; Replicate 2, time 576 sec, [B]0=250",227.268
same,second-order,"[2]; Replicate 2, time 576 sec, second-order plot value",0.001046
same,remaining [A],"[2]; Replicate 2, time 606 sec",79.1621
same,remaining [B],"[2]; Replicate 2, time 606 sec, [B]0=250",226.02
same,second-order,"[2]; Replicate 2, time 606 sec, second-order plot value",0.001115
same,remaining [A],"[2]; Replicate 3, time 576 sec",81.6859
same,remaining [B],"[2]; Replicate 3, time 576 sec, [B]0=250",227.139
same,second-order,"[2]; Replicate 3, time 576 sec, second-order plot value",0.001037
same,remaining [A],"[2]; Replicate 3, time 606 sec",80.8202
same,remaining [B],"[2]; Replicate 3, time 606 sec, [B]0=250",226.273
same,second-order,"[2]; Replicate 3, time 606 sec, second-order plot value",0.001084
same,remaining [B],"[2]; time 0 sec, [B]0 = 250, replicates 1-3",247.836 and 246.58 and 246.712
same,second-order,"[2]; time 0 sec, replicates 1-3",0.0001305 and 8.4046e-5 and 0.0001345
same,remaining [B],"[2]; time 30 sec, [B]0 = 250, replicates 1-3",246.591 and 244.557 and 245.38
same,second-order,"[2]; time 30 sec, replicates 1-3",0.000185 and 0.0001335 and 0.0002172
same,remaining [B],"[2]; time 60 sec, [B]0 = 250, replicates 1-3",244.968 and 243.73 and 244.048
same,second-order,"[2]; time 60 sec, replicates 1-3",0.0002407 and 0.0001994 and 0.0002516
same,remaining [B],"[2]; time 91 sec, [B]0 = 250, replicates 1-3",243.804 and 242.562 and 242.8
same,second-order,"[2]; time 91 sec, replicates 1-3",0.0002937 and 0.0002475 and 0.000301
same,remaining [B],"[2]; time 121 sec, [B]0 = 250, replicates 1-3",243.047 and 241.251 and 241.752
same,second-order,"[2]; time 121 sec, replicates 1-3",0.0003391 and 0.0002792 and 0.0003575
same,remaining [B],"[2]; time 151 sec, [B]0 = 250, replicates 1-3",242.371 and 240.196 and 240.873
same,second-order,"[2]; time 151 sec, replicates 1-3",0.0003777 and 0.0003079 and 0.0004037
same,remaining [B],"[2]; time 182 sec, [B]0 = 250, replicates 1-3",241.478 and 239.142 and 240.023
same,second-order,"[2]; time 182 sec, replicates 1-3",0.0004154 and 0.0003461 and 0.0004506
same,remaining [B],"[2]; time 212 sec, [B]0 = 250, replicates 1-3",240.882 and 238.087 and 239.314
same,second-order,"[2]; time 212 sec, replicates 1-3",0.0004473 and 0.0003719 and 0.0004982
same,remaining [B],"[2]; time 242 sec, [B]0 = 250, replicates 1-3",239.746 and 237.004 and 238.605
same,second-order,"[2]; time 242 sec, replicates 1-3",0.0004795 and 0.0004218 and 0.000548
same,remaining [B],"[2]; time 273 sec, [B]0 = 250, replicates 1-3",238.772 and 235.921 and 237.868
same,second-order,"[2]; time 273 sec, replicates 1-3",0.0005133 and 0.0004652 and 0.0005985
same,remaining [B],"[2]; time 303 sec, [B]0 = 250, replicates 1-3",237.095 and 234.981 and 237.103
same,second-order,"[2]; time 303 sec, replicates 1-3",0.0005489 and 0.0005414 and 0.0006431
same,remaining [B],"[2]; time 333 sec, [B]0 = 250, replicates 1-3",235.255 and 233.898 and 236.026
same,second-order,"[2]; time 333 sec, replicates 1-3",0.0005997 and 0.0006273 and 0.0006953
same,remaining [B],"[2]; time 364 sec, [B]0 = 250, replicates 1-3",234.038 and 233.014 and 234.41
same,second-order,"[2]; time 364 sec, replicates 1-3",0.0006774 and 0.0006854 and 0.0007385
same,remaining [B],"[2]; time 394 sec, [B]0 = 250, replicates 1-3",232.874 and 231.988 and 233.73
same,second-order,"[2]; time 394 sec, replicates 1-3",0.0007107 and 0.0007421 and 0.0007895
same,remaining [B],"[2]; time 424 sec, [B]0 = 250, replicates 1-3",231.738 and 230.934 and 232.256
same,second-order,"[2]; time 424 sec, replicates 1-3",0.0007842 and 0.0007984 and 0.0008427
same,remaining [B],"[2]; time 454 sec, [B]0 = 250, replicates 1-3",230.764 and 230.107 and 231.378
same,second-order,"[2]; time 454 sec, replicates 1-3",0.0008288 and 0.0008475 and 0.000885
same,remaining [B],"[2]; time 485 sec, [B]0 = 250, replicates 1-3",229.871 and 229.167 and 230.13
same,remaining [B],"[2]; time 515 sec, [B]0 = 250, replicates 1-3",228.978 and 228.226 and 228.94
same,second-order,"[2]; time 515 sec, replicates 1-3",0.0009559 and 0.0009395 and 0.0009836
same,remaining [B],"[2]; time 545 sec, [B]0 = 250, replicates 1-3",227.95 and 227.314 and 227.948
same,second-order,"[2]; time 545 sec, replicates 1-3",0.001009 and 0.0009937 and 0.001032
